Assay results published in the NIST ThermoML archive (doi:10.1021/je0602263).

Test: xn = mol fraction of the nth substance listed
Conditions: 298.15 K, 101 kPa, Liquid

COC(=O)OC [dimethyl carbonate] + Cc1ccccc1
Conditions | mass density [kg/m3]
x1 = 0.0498 | 869.9
x1 = 0.0998 | 877.68
x1 = 0.15 | 885.75
x1 = 0.1999 | 893.96
x1 = 0.2498 | 902.39
x1 = 0.2999 | 911.1
x1 = 0.3498 | 919.98
x1 = 0.4 | 929.22
x1 = 0.4498 | 938.57
x1 = 0.4999 | 948.26
x1 = 0.5499 | 958.27
x1 = 0.5999 | 968.51
x1 = 0.65 | 979.06
x1 = 0.7 | 989.94
x1 = 0.7499 | 1001.14
x1 = 0.8001 | 1012.77
x1 = 0.8501 | 1024.73
x1 = 0.8998 | 1037.03
x1 = 0.9502 | 1049.89
x1 = 1 | 1063.19

COC(=O)OC [dimethyl carbonate] + CCCCCCC
Conditions | mass density [kg/m3]
x1 = 0.0501 | 690.16
x1 = 0.0999 | 700.47
x1 = 0.15 | 711.7
x1 = 0.1998 | 723.65
x1 = 0.2501 | 736.28
x1 = 0.2999 | 749.59
x1 = 0.3501 | 763.95
x1 = 0.4 | 779.05
x1 = 0.4499 | 795.07
x1 = 0.5001 | 812.18
x1 = 0.5498 | 830.25
x1 = 0.6 | 849.67
x1 = 0.6499 | 870.23
x1 = 0.7001 | 892.23
x1 = 0.75 | 915.72
x1 = 0.8 | 941.09
x1 = 0.8501 | 968.3
x1 = 0.9001 | 997.61
x1 = 0.9501 | 1029.09
x1 = 1 | 1063.19

CC(C)CC(C)(C)C [2,2,4-trimethylpentane] + COC(=O)OC
Conditions | mass density [kg/m3]
x2 = 0 | 688.04

Cc1ccccc1 [toluene] + COC(=O)OC
Conditions | mass density [kg/m3]
x2 = 0 | 862.5

COC(=O)OC [dimethyl carbonate] + CC(C)CC(C)(C)C
Conditions | mass density [kg/m3]
x1 = 0.0497 | 696.81
x1 = 0.1 | 706.22
x1 = 0.15 | 716.12
x1 = 0.2001 | 726.95
x1 = 0.2499 | 738.38
x1 = 0.2998 | 750.67
x1 = 0.3498 | 763.75
x1 = 0.4004 | 777.96
x1 = 0.4498 | 792.89
x1 = 0.5002 | 809.29
x1 = 0.5499 | 826.46
x1 = 0.5998 | 845.2
x1 = 0.6502 | 865.43
x1 = 0.7 | 887.02
x1 = 0.75 | 910.31
x1 = 0.8 | 935.94
x1 = 0.8499 | 963.69
x1 = 0.8999 | 993.77
x1 = 0.9498 | 1026.79
x1 = 1 | 1063.19

c1ccccc1 [benzene] + COC(=O)OC
Conditions | mass density [kg/m3]
x2 = 0 | 873.56

CCCCCCC [heptane] + COC(=O)OC
Conditions | mass density [kg/m3]
x2 = 0 | 680.52

COC(=O)OC [dimethyl carbonate] + c1ccccc1
Conditions | mass density [kg/m3]
x1 = 0.0499 | 882
x1 = 0.1 | 890.57
x1 = 0.15 | 899.18
x1 = 0.2001 | 907.93
x1 = 0.2499 | 916.61
x1 = 0.3 | 925.59
x1 = 0.3498 | 934.53
x1 = 0.4 | 943.7
x1 = 0.45 | 952.89
x1 = 0.5001 | 962.25
x1 = 0.55 | 971.69
x1 = 0.6 | 981.28
x1 = 0.6499 | 990.96
x1 = 0.7001 | 1000.84
x1 = 0.7501 | 1010.88
x1 = 0.8001 | 1021.01
x1 = 0.8498 | 1031.36
x1 = 0.8999 | 1041.69
x1 = 0.9501 | 1052.35
x1 = 1 | 1063.19
